Drawing on US7138403B2, “2,4,5-trisubstituted thiazolyl derivatives and their antiinflammatory activity” (Janssen Pharmaceutica N.V., priority 2001, dated 2006), this text covers inhibition for eleven compounds.

Test [1] deals with IL-12p40 production. Description: In vitro inhibition of IL-12p40 production in human blood (LPS-stimulated whole blood, ELISA). It counts as cell-based. Conditions: test dose 1 × 10^−6 M, LPS 100 ng/ml, 24 hours, read-out: % inhib. IL-12 (p40). How it is done: In Vitro Inhibition of IL-12p40 Production in Human Blood
Human Whole Blood Stimulation
Peripheral blood from healthy male donors was drawn into heparinized syringes (12.5 U heparin/ml). Blood samples were three-fold diluted in RMPI 1640 medium (Life Technologies, Belgium) supplemented with 2 mM L-glutamine, 100 U/ml penicillin and 100 μg/ml streptomycin, and 300 μl fractions were distributed in 24-well multidisc plates (Nunc, Roskilde, Denmark). Blood samples were preincubated (60 minutes at 37° C.) in a humidified 6% CO2-atmosphere with 100 µl of drug solvent (final concentration 0.02% dimethylsulfoxide in RPMI 1640) or with 100 μl of an appropriate dose of test compound before being stimulated by the addition of 100 μl of lipopolysaccharide at a final concentration of 100 ng/ml. After 24 hours, cell-free supernatant fluids were collected by centrifugation and stored at −20° C. until tested for the presence of IL-12 p40.
Cytokine protein concentrations were determined by sandwich ELISA as described in Van Wauwe et al. (1996, Inflamm Res, 45, 357–363). Murine monoclonals used as capture antibodies to human cytokines were obtained from R&D Systems (Abingdon, United Kingdom) and code named MAB210 and MAB611 for TNF-α and IL-12 p40 respectively. Biotinylated goat polyclonal antibodies used to detect human cytokines were from R&D Systems (BAF210, BAF219). Cytokine levels were calculated from standard curves using recombinant cytokines supplied by R&D Systems.
(In general: ELISA stands for enzyme-linked immunosorbent assay.)

Test [2] concerns IL-12p70 production. Nature of the test: In vitro inhibition of IL-12p70 production in human blood (LPS-stimulated whole blood, ELISA). The conditions noted are these: test dose 1 × 10^−8 M, LPS 100 ng/ml, 24 hours, read-out: % inhib. IL-12 (p70). It counts as cell-based. How it is done:
In Vitro Inhibition of IL-12p70 Production in Human Blood Human Whole Blood Stimulation Peripheral blood from healthy donors was drawn into heparinized syringes (12.5 U heparin/ml). Blood samples were three-fold diluted in RMPI 1640 medium (Life Technologies, Belgium) supplemented with 2 mM L-glutamine, 100 U/ml penicillin and 100 μg/ml streptomycin, and 200 μl fractions were distributed in 96-well plates (Nunc, Roskilde, Denmark). Blood samples were preincubated (5 minutes at 37° C.) in a humidified 5% CO2-atmosphere with 25 μl of drug solvent (final concentration 0.1% dimethylsulfoxide in RPMI 1640) or with 25 μl of an appropriate dose of test compound before being stimulated by the addition of 25 μl of lipopolysaccharide at a final concentration of 100 ng/ml. After 24 hours, cell-free supernatant fluids were collected by centrifugation and stored at −20° C. until tested for the presence of IL-12. Cytokine Measurements Cytokine protein concentrations were determined by sandwich ELISA as described in Van Wauwe et al. (1996, Inflamm Res, 45,357–363). The quantikine HS kit (R &D HS120, Abingdon, United Kingdom) was used to quantify the cytokine levels (IL12 p70) in the supernatant

Structures are written as SMILES.

For the compound `Cc1nc(-c2ccc(C(F)(F)F)cc2)sc1-c1ccnc(N)n1` [Compound 9], the inhibition at 1 µM in test [1] amounted to 57%. For the same compound, the inhibition at 0.01 µM in test [2] stood at 92%.
For `Cc1nccc(-c2sc(-c3ccc(C(F)(F)F)cc3)nc2C)n1` [Compound 35], the inhibition at 0.01 µM in test [2] was 94%.
Take `Cc1nc(-c2ccc(C(F)(F)F)cc2)sc1-c1ccnc(NCCCN)n1` [Compound 38]: the inhibition at 1 µM in test [1] stood at 93%.
The same measure, in the same setting: as for `Cc1nc(-c2ccc(C(F)(F)F)cc2)sc1-c1ccnc(C#N)n1` [Compound 40], the figure is 93%.
The same measure, in the same setting: for `Cc1nc(-c2ccc(C(F)(F)F)cc2)sc1-c1nc(N)ncc1F` [Compound 49] the value was 92%.
For `Cc1nc(-c2ccc(C(F)(F)F)cc2)sc1-c1ccnc(N(CCO)CCO)n1` [Compound 70], the inhibition at 0.01 µM in test [2] turned out to be 90%.
Take `Cc1nc(-c2ccc(C(F)(F)F)cc2)sc1-c1cc(O)nc(N)n1` [Compound 80]: in test [1], the inhibition at 1 µM amounted to 49%.
`Cc1nc(-c2ccc(C(F)(F)F)cc2)sc1-c1ncnc(N)n1` [Compound 81]: in test [2], the inhibition at 0.01 µM amounted to 94%.
With `COc1nccc(-c2sc(-c3ccc(C(F)(F)F)cc3)nc2C)n1` [Compound 83], the inhibition at 1 µM in test [1] came to 59%.
For `Cc1nc(-c2ccc(C(F)(F)F)cc2)sc1-c1ccnc(NCCC(=O)O)n1` [Compound 84], the inhibition at 0.01 µM in test [2] was 95%.
As for `Cc1nc(-c2ccc(C(F)(F)F)cc2)sc1-c1ccnc(NCC(=O)O)n1` [Compound 90], the inhibition at 1 µM in test [1] was determined as 56%.
